This test relates to potato leafhopper (Empoasca fabae). As to the kind of experiment: Test D: control of potato leafhopper on Soleil bean plant, contact and/or systemic. It is filed as in vivo. Particulars: 144 h, 6 days, very good to excellent control, read-out: control efficacy: mortality; for mortality at 250 ppm: sprayed at 250 ppm; for mortality at 50 ppm: sprayed at 50 ppm. As for the experimental part: Test compounds were formulated using a solution containing 10% acetone, 90% water and 300 ppm X-77® Spreader Lo-Foam Formula non-ionic surfactant containing alkylarylpolyoxyethylene, free fatty acids, glycols and isopropanol (Loveland Industries, Inc. Greeley, Colo., USA). The formulated compounds were applied in 1 mL of liquid through a SUJ2 atomizer nozzle with ⅛ JJ custom body (Spraying Systems Co., Wheaton, Ill., USA) positioned 1.27 cm (0.5 inches) above the top of each test unit. Test compounds were sprayed at 250 ppm and/or 50 ppm, and replicated three times. After spraying of the formulated test compound, each test unit was allowed to dry for 1 h and then a black, screened cap was placed on top. The test units were held for 6 days in a growth chamber at 25° C. and 70% relative humidity. Plant feeding damage was then visually assessed based on foliage consumed.
For evaluating control of potato leafhopper (Empoasca fabae) through contact and/or systemic means, the test unit consisted of a small open container with a 5-6-day-old Soleil bean plant (primary leaves emerged) inside. White sand was added to the top of the soil and one of the primary leaves was excised prior to application.
Test compounds were formulated and sprayed at 250 ppm and/or 50 ppm, and the tests were replicated three times as described for Test A. After spraying, the test units were allowed to dry for 1 h before they were post-infested with 5 potato leafhoppers (18-21-day-old adults). A black, screened cap was placed on the top of each test unit, and the test units were held for 6 days in a growth chamber at 24° C. and 70% relative humidity. Each test unit was then visually assessed for insect mortality.

For orientation: mortality means the percentage killed.

Structures are written as SMILES.

In the case of `Cn1c(-c2cccc(C(F)(F)F)c2)nc(CN2CCOCC2)c1-c1ccc(F)cc1F` (single isomer, unassigned) [Compound 49, 4-[[5-(2,4-difluorophenyl)-1-methyl-2-[3-(trifluoromethyl)phenyl]-1H-imidazol-4-yl]methyl]morpholine], the mortality at 250 ppm was at least 80%.
Consider `COC(=O)C1CCN(Cc2cc(-c3cccc(C(F)(F)F)c3)nn2-c2ccc(F)cc2)CC1` [Compound 6, methyl 1-[[1-(4-fluorophenyl)-3-[3-(trifluoromethyl)phenyl]-1H-pyrazol-5-yl]methyl]-4-piperidinecarboxylate], for which the mortality at 50 ppm is at least 80% and the mortality at 250 ppm was at least 80%.
With `Fc1ccc(-c2[nH]c(-c3cccc(C(F)(F)F)c3)nc2CN2CCOCC2)c(F)c1` [Compound 44, 4-[[5-(2,4-difluorophenyl)-2-[3-(trifluoromethyl)phenyl]-1H-imidazol-4-yl]methyl]morpholine], the mortality at 50 ppm was at least 80% and the mortality at 250 ppm is at least 80%.
Regarding `CC(=O)NC1CCN(Cc2oc(-c3cccc(C(F)(F)F)c3)nc2-c2ccc(F)cc2)CC1` [Compound 65, N-[1-[[4-(4-fluorophenyl)-2-[3-(trifluoromethyl)phenyl]-5-oxazolyl]methyl]-4-piperidinyl]acetamide], the mortality at 50 ppm was at least 80% and the mortality at 250 ppm was at least 80%.
`N#CC1CCN(Cc2c(-c3ccc(F)cc3F)nc3n2CCc2ccc(Cl)cc2-3)CC1` [Compound 151]: the mortality at 250 ppm is at least 80%.
Same read-out and setting: for `N#CC1CCN(Cc2c(-c3ccc(F)cc3F)nc3n2CCc2cc(Cl)ccc2-3)CC1` [Compound 155] the value was at least 80%.

Values taken from patent US20150126364A1, “1,3-DIARYL-SUBSTITUTED HETEROCYCLIC PESTICIDES” (E I DU PONT DE NEMOURS AND COMPANY, priority 2012, published 2015).
